Assay [1] deals with T1, GSK3a (GST-full length GSK3a) (Homo sapiens, UniProt P49840).
T1 construct: GST-full length GSK3a [SignalChem G08-10G]; purchased SignalChem G08-10G
The assay is described as follows: GSK3a TR-FRET kinase inhibition assay. The format is biochemical. The procedure: (§1) TR-FRET assay was performed in a white, 384 well, low volume, flat bottom plate (Grenier). After a 30 minute preincubation in assay buffer with the indicated concentration of compound, the kinase activity was initiated by the addition of the substrates. 1 nM GSK3a (GST-full length GSK3a [SignalChem G08-10G]) or 1 nM GSK3b (GST-full length GSK3b: [SignalChem G08-9G]) were then incubated at ambient temperature for 100 minutes in 10 μl of 50 mM Tris, pH 7.5, 20 mM MgCl2, 0.05 mM DTT, 100 μg/ml BSA and 1% DMSO, with 200 nM biotinylated peptide substrate (biotinylated and S645 phosphorylated glycogen synthase 631-650) and ATP (e.g., at 2 μM, 4 μM, 10 μM, 100 μM, or 1 mM). The kinase activity was quenched with 2 μl of 250 mM EDTA. A 10 μl volume of 40 nM Strepavidin-d2, 2 nM […] antibody in TR-FRET Detection Buffer (Invitrogen) was then added. After 60 min at room temperature the plate was read on Envision plate reader using Ex: 340 nm, Em: 615 nm and […]. The normalized 665/615 Signal ratio versus log compound concentration was analyzed by XLFIT to yield IC50 values.
Background: TR-FRET usually uses a lanthanide donor and a delayed reading to cut background.

Assay [2] deals with T2, GSK3b (GST-full length GSK3b) (Homo sapiens, UniProt P49841).
T2 construct: GST-full length GSK3b: [SignalChem G08-9G]; purchased SignalChem G08-9G
The assay is described as follows: GSK3b TR-FRET kinase inhibition assay. In kind it is biochemical. Here is the method:
as §1

Where [3] appears, read: 4 μM ATP, read-out: GSK3α TR-FRET 4 μM ATP GMean IC50.
Where [4] appears, read: 2 μM ATP, read-out: GSK3β TR-FRET 2 μM ATP GMean IC50.
The mark [5] stands for this setting: 1 mM ATP, Table 5, read-out: GSK3α TR-FRET 1 mM ATP Average IC50.
Setting [6] is: 1 mM ATP, Table 5, read-out: GSK3β TR-FRET 1 mM ATP Average IC50.
[7] abbreviates: 1 mM ATP, Table 3, read-out: GSK3a TR-FRET 1 mM ATP Average IC50.
Setting [8] is: 1 mM ATP, Table 3, read-out: GSK3b TR-FRET 1 mM ATP Average IC50.
Setting [9] is: 100 μM ATP, read-out: GSK3a 100 μM ATP Average IC50.
[10] abbreviates: 100 μM ATP, read-out: GSK3b 100 μM ATP Average IC50.

Read-outs that look alike come from different tables or passages of the source.

T2 sequence (P49841 whole entry): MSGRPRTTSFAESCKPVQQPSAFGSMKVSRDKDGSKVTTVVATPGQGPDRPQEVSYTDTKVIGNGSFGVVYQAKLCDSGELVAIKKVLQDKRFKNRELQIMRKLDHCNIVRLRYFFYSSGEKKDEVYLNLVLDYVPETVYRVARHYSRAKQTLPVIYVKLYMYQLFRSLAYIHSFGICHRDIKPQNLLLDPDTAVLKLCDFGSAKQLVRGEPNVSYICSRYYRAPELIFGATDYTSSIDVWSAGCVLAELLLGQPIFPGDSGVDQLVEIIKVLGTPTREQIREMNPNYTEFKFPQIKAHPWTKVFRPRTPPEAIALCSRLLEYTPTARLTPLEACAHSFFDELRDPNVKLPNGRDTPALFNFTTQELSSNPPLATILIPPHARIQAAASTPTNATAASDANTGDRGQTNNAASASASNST
T1 sequence (P49840 whole entry): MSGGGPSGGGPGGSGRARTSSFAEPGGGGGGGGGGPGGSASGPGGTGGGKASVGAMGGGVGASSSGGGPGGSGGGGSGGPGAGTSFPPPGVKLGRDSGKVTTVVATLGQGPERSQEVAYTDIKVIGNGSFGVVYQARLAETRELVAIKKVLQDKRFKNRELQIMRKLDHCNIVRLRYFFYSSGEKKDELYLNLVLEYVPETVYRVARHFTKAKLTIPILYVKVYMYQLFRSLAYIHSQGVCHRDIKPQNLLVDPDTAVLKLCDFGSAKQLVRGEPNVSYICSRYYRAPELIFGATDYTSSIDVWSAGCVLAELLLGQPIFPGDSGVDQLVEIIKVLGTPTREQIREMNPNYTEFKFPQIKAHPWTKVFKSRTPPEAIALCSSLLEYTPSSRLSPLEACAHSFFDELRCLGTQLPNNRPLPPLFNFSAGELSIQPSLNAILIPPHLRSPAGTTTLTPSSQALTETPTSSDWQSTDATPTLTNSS

Turning to `CCC1(c2cccc(-c3ccnn3C)c2)C2=C(CC(C)(C)CC2=O)Nc2ncccc21` (single isomer, unassigned) [Compound 1019B], the IC50 in assay [1] (setting [3]) and in assay [2] (setting [4]) was above 5000 nM each time.

As to `Cc1c(C2(C)C3=C(CC(C)(C)CC3=O)Nc3ncc(F)cc32)cccc1S(C)(=O)=O` (single isomer, unassigned) [643A], the concentration for half-maximal inhibition (IC50) in assay [1] (setting [5]) and in assay [2] (setting [6]) was 100 to 1000 nM in each case.

For the molecule `CC1(C)CC(=O)C2=C(C1)Nc1ncc(C(F)(F)F)cc1C2(C)c1cccc(C(F)F)c1` (single isomer, unassigned) [646A], the concentration for half-maximal inhibition (IC50) in assay [1] (setting [5]) and in assay [2] (setting [6]) was 5000 to 20000 nM each time.

For the molecule `C=Cc1cnc2c(c1Br)C(C)(c1ccccc1)C1=C(CC(C)(C)CC1=O)N2` (single isomer, unassigned) [640B], the IC50 in assay [1] (setting [5]) and in assay [2] (setting [6]) was 5000 to 20000 nM throughout.

As for `CC(C)Oc1cccc(C2(C)C3=C(CC(C)(C)CC3=O)Nc3ncc(F)c(C#N)c32)c1` (single isomer, unassigned) [639A], the IC50 in assay [1] (setting [5]) and in assay [2] (setting [6]) was 5000 to 20000 nM throughout.

As for `CC1(C)CC(=O)C2=C(C1)Nc1ncc3ccccc3c1C2(C)c1ccccc1` (single isomer, unassigned) [606B], the half-maximal inhibitory concentration (IC50) in assay [1] (setting [5]) and in assay [2] (setting [6]) was 1000 to 5000 nM throughout.

For the molecule `CN(C)c1cnc2c(c1C#N)C(C)(c1ccccc1)C1=C(CC(C)(C)CC1=O)N2` (single isomer, unassigned) [624B], the IC50 in assay [1] (setting [5]) is above 20000 nM; in assay [2] (setting [6]) it was 5000 to 20000 nM.

In the case of `CC1(C)CC(=O)C2=C(C1)Nc1nccc(F)c1C2(C)c1ccccc1` (single isomer, unassigned) [Compound 105B], the concentration for half-maximal inhibition (IC50) in assay [1] (setting [7]) and in assay [2] (setting [8]) was 1000 to 5000 nM each time.

For `CCC1(c2ccccc2)C2=C(CC3(CCC3)CC2=O)Nc2ncccc21` (single isomer, unassigned) [110 B], the IC50 in assay [1] (setting [3]) and in assay [2] (setting [4]) was above 5000 nM in each case.

Take `CCC1(c2cccc(-c3ccncc3)c2)C2=C(CC(C)(C)CC2=O)Nc2ncccc21` (single isomer, unassigned) [Compound 1017B]: the IC50 in assay [1] (setting [3]) and in assay [2] (setting [4]) was above 5000 nM in each case.

On to `CC1(C)CC(=O)C2=C(C1)Nc1ncc(C(F)(F)F)cc1C2(C)c1ccccc1` (single isomer, unassigned) [Compound 128A], for which the IC50 in assay [1] (setting [7]) is 5000 to 20000 nM; in assay [2] (setting [8]), 1000 to 5000 nM.

As to `CCC1(c2ccccc2)C2=C(CC(C)(C)CC2=O)Nc2ncc(F)cc21` (racemic) [Compound 114], the 50% inhibitory concentration (IC50) in assay [1] (setting [3]) and in assay [2] (setting [4]) was at most 100 nM throughout.

In the case of `CC1(C)CC(=O)C2=C(C1)Nc1ncc(C(F)(F)F)c(Cl)c1C2(C)c1ccccc1` (single isomer, unassigned) [Compound 141A], the figures for the IC50 in assay [1] (setting [7]) and in assay [2] (setting [8]) were 5000 to 20000 nM and 1000 to 5000 nM, respectively.

In the case of `CC1(C)CC(=O)C2=C(C1)Nc1ncc(F)cc1C2(C)c1cccc(-c2c(F)cncc2CC2CC2)c1` (single isomer, unassigned) [Compound 169A], the half-maximal inhibitory concentration (IC50) in assay [1] (setting [7]) and in assay [2] (setting [8]) was 100 to 1000 nM in each case.

In the case of `CC1(C)CC2=C(C(=O)[C@@H]1F)[C@@](C)(c1ccccc1)c1c(ncc(F)c1C#N)N2` (single isomer, unassigned) [Compound 616A], the IC50 in assay [1] (setting [5]) and in assay [2] (setting [6]) was 100 to 1000 nM throughout.

Regarding `CCc1cnc2c(c1C#N)C(C)(c1ccccc1)C1=C(CC(C)(C)CC1=O)N2` (single isomer, unassigned) [608B], the concentration for half-maximal inhibition (IC50) in assay [1] (setting [5]) and in assay [2] (setting [6]) was 5000 to 20000 nM in each case.

Turning to `CC(C)c1ccnc2c1C(C)(c1ccccc1)C1=C(CC(C)(C)CC1=O)N2` (single isomer, unassigned) [Compound 120A], the IC50 lay within 1000 to 5000 nM in assay [1] (setting [7]) and 100 to 1000 nM in assay [2] (setting [8]).

As to `CCC1(c2ccccc2)C2=C(CC(C)(C)CC2=O)Nc2ncc(C(F)(F)F)cc21` (single isomer, unassigned) [133 A], the 50% inhibitory concentration (IC50) in assay [1] (setting [3]) and in assay [2] (setting [4]) was above 5000 nM throughout.

As for `Cn1ncc2c3c(ncc21)NC1=C(C(=O)CC(C)(C)C1)C3(C)c1cccc(S(C)(=O)=O)c1` (single isomer, unassigned) [649A], the results for the half-maximal inhibitory concentration (IC50) in assay [1] (setting [5]) and in assay [2] (setting [6]) were 5000 to 20000 nM and 1000 to 5000 nM, respectively.

As for `CC1(C)CC(=O)C2=C(C1)Nc1ncccc1C2(C)c1cccc(-c2ccncc2OCC(F)F)c1` (single isomer, unassigned) [Compound 162A], the half-inhibitory concentration (IC50) in assay [1] (setting [7]) lay within 5000 to 20000 nM; in assay [2] (setting [8]) it was 1000 to 5000 nM.

Consider `CC1(C)CC(=O)C2=C(C1)Nc1ncc(F)c(C(F)(F)F)c1C2(C)c1cccc(S(C)(=O)=O)c1` (single isomer, unassigned) [Compound 166A], for which the IC50 in assay [1] (setting [7]) and in assay [2] (setting [8]) was 100 to 1000 nM in each case.

With `CC1(C)CC(=O)C2=C(C1)Nc1ncc(F)c(C#N)c1C2(C)c1cccc(C(F)F)c1` (single isomer, unassigned) [634A], the IC50 in assay [1] (setting [5]) and in assay [2] (setting [6]) was 5000 to 20000 nM in each case.

As for `CC1(C)CC(=O)C2=C(C1)Nc1ncc(F)cc1C2(C)c1cccc(C(F)F)c1` (single isomer, unassigned) [623B], the IC50 in assay [1] (setting [5]) and in assay [2] (setting [6]) was 100 to 1000 nM in each case.

`CC1(C)CC(=O)C2=C(C1)Nc1ncc(C3CCC3)cc1C2(C)c1ccccc1` (single isomer, unassigned) [Compound 122A]: the IC50 was in the range of 1000 to 5000 nM in assay [1] (setting [9]), 1000 to 5000 nM in assay [2] (setting [10]) and 5000 to 20000 nM in assay [2] (setting [8]).

As to `CC1(C)CC(=O)C2=C(C1)Nc1ncc(C(F)F)c(C#N)c1C2(C)c1ccccc1` (single isomer, unassigned) [627B], the half-maximal inhibitory concentration (IC50) in assay [1] (setting [5]) lay in the range of 5000 to 20000 nM; in assay [2] (setting [6]) it was 1000 to 5000 nM.

With `CCC1(c2cccc(-c3ccnc4c3CCCC4)c2)C2=C(CC(C)(C)CC2=O)Nc2ncccc21` (single isomer, unassigned) [Compound 1039A], the IC50 in assay [1] (setting [3]) and in assay [2] (setting [4]) was 100 to 1000 nM in each case.

Consider `CCC1(c2ccccc2)C2=C(CC(C)(C)CC2=O)Nc2ncc(C(F)(F)F)cc21` (single isomer, unassigned) [133 B], for which the IC50 in assay [1] (setting [3]) and in assay [2] (setting [4]) was at most 100 nM in each case.

Take `CC1(C)CC(=O)C2=C(C1)Nc1ncc(C(F)(F)F)cc1C2(C)c1cccc(C(F)F)c1` (single isomer, unassigned) [646B]: the concentration for half-maximal inhibition (IC50) in assay [1] (setting [5]) lay within 1000 to 5000 nM; in assay [2] (setting [6]), 100 to 1000 nM.

For `CCc1cnc2c(c1C#N)C(C)(c1ccccc1)C1=C(CC(C)(C)CC1=O)N2` (single isomer, unassigned) [608A], the 50% inhibitory concentration (IC50) in assay [1] (setting [5]) and in assay [2] (setting [6]) was 1000 to 5000 nM in each case.

Consider `CC1(C)CC(=O)C2=C(C1)Nc1ncc(C(C)(F)F)c(C#N)c1C2(C)c1ccccc1` (single isomer, unassigned) [631A], for which the IC50 in assay [1] (setting [5]) and in assay [2] (setting [6]) was 5000 to 20000 nM in each case.

Take `CN1C(=O)C2=C(CC1(C)C)Nc1ncc(C(F)F)c(C#N)c1C2(C)c1ccccc1` (single isomer, unassigned) [632A]: the IC50 was in the range of 1000 to 5000 nM in assay [1] (setting [5]) and 100 to 1000 nM in assay [2] (setting [6]).

Turning to `Cc1ccc(C2(C)C3=C(CC(C)(C)CC3=O)Nc3ncc(F)cc32)cc1S(C)(=O)=O` (single isomer, unassigned) [644A], the IC50 in assay [1] (setting [5]) and in assay [2] (setting [6]) was 100 to 1000 nM in each case.

As to `CCC1(c2cccc(-c3ccnc(C)c3C)c2)C2=C(CC(C)(C)CC2=O)Nc2ncc(F)cc21` (single isomer, unassigned) [Compound 1035A], the IC50 in assay [1] (setting [3]) and in assay [2] (setting [4]) was 1000 to 5000 nM in each case.

On to `CCC1(c2cccc(-c3cc(C)nn3C)c2)C2=C(CC(C)(C)CC2=O)Nc2ncccc21` (single isomer, unassigned) [Compound 1024A], for which the IC50 is 1000 to 5000 nM in assay [1] (setting [3]) and above 5000 nM in assay [2] (setting [4]).

As for `CCC1(c2cccc(-c3cc(C)nn3C)c2)C2=C(CC(C)(C)CC2=O)Nc2ncc(F)cc21` (single isomer, unassigned) [Compound 1033B], the IC50 in assay [1] (setting [3]) and in assay [2] (setting [4]) was at most 100 nM throughout.

As to `CC1(C)CC(=O)C2=C(C1)Nc1ncccc1C2(C)c1cccc(-c2ccncc2N2CCCC2)c1` (single isomer, unassigned) [Compound 158A], the IC50 in assay [1] (setting [7]) and in assay [2] (setting [8]) was 100 to 1000 nM in each case.

As for `Cc1ccnc2c1C(C)(c1ccccc1)C1=C(CC(C)(C)CC1=O)N2` (single isomer, unassigned) [Compound 104A], the IC50 in assay [1] (setting [9]) was at most 100 nM; in assay [1] (setting [7]), 1000 to 5000 nM; in assay [2] (setting [10]), 100 to 1000 nM; in assay [2] (setting [8]), 1000 to 5000 nM.

Regarding `CC1(C)CC(=O)C2=C(C1)Nc1ncccc1C2(C)c1cccc(-c2ccncc2OCC(F)F)c1` (single isomer, unassigned) [Compound 162B], the concentration for half-maximal inhibition (IC50) in assay [1] (setting [7]) and in assay [2] (setting [8]) was 100 to 1000 nM each time.

Usually IC50 stands for the concentration needed to halve the response being measured.

Source of the values: patent publication US20260103465A1, “GLYCOGEN SYNTHASE KINASE 3 INHIBITORS AND USES THEREOF” (The Broad Institute, Inc., priority 2023, published 2026).
